Data taken from patent US20250312320A1, “METHOD AND TREATMENT FOR OSTEOARTHRITIS AND DISEASES OF CHONDROCYTE HYPERTROPHY” (The Royal Veterinary College, priority 2022, published 2025).
“Also recorded” adds a separate entry of the source.

Key:
[1] = test system: C57/BL-6 bone marrow derived osteoclasts; assay: Primary osteoclast number and resorption on dentin discs; assay type: cell-based, mouse; details: 1 μM, N=8
Experimental: Osteoclasts were isolated from the bone marrow of the long bones of 8-week old C57/BL-6 mice and cultured for 24 hours in osteoclast basal media (MEM supplemented with 10% FBS, 2 mM L-glutamine, 1% Ab/Am). After 24 hours, 1×10^6 osteoclasts were seeded onto dentin discs in osteoclast differentiation media (basal media supplemented with 100 nM PGE2, 200 ng/ml MCSF, 3 ng/ml RANKL pH 7.3) for 24 hours before addition of 1 μM BI1347 or DMSO for 3 days (N=8). On day 5 of culture, osteoclast resorption was initiated by addition of 10 mM hydrochloric acid to acidify differentiation media to pH 7.0 for 2 days. On day 7, discs were fixed in 2.5% glutaraldehyde, tartrate resistant acid phosphatase (TRAP) stained and imaged using Axiovert Microscope at ×10 magnification to observe osteoclast resorption.
Pre-osteoclast and osteoclast numbers were counted using the automated counting method developed by Davies et al. 2021 (currently under review) using Ilastik software in Image J (Fiji, US). Resorption area on each disc was manually counted and analysed using Image J software.

ATDC5 micromass = ATDC5 micromass treated with CDK8i: qPCR gene expression and morphology; assay type: cell-based, mouse; details: 1 μM
Experimental: ATDC5 and primary equine chondrocytes were cultured in micromasses and treated with a CDK8i to determine effects on gene expression during chondrogenic differentiation.
In more detail, for ATDC5 cells, 2.7×10^5 cells were seeded in a 10 μl droplet onto a 24-well plate and cultured in differentiation media supplemented with CDK8i for 7 days before switching to mineralisation media supplemented with CDK8i for a further 7 days to induce hypertrophic differentiation as previous. The CDK8i was either 1 μM BI1347 or 100 nM MSC2530818.
On days 7 and 14 DMSO control and BI1347/MSC2530818 treated ATDC5 micromasses were lysed in triplicate and RNA extracted using Reliaprep RNA miniprep system (Promega) before cDNA synthesis using High-capacity reverse transcriptase kit (Applied BioScience). Quantitative PCR (qPCR) analysis was carried out using 10 ng cDNA in iTaq mastermix (BioRad) according to manufacturer's instructions. Primer sequences for qPCR reactions are shown in Table 1. ΔCt values of genes expressed were normalised to reference housekeeper genes and subsequently used to generate relative expression. Significance was observed by conducting unpaired T-test with Welch correction.

[2] = test system: THP-1 derived macrophages; assay: LPS stimulated THP-1 derived macrophages: gene expression; assay type: cell-based, human; details: 1 μM, 1 h pretreatment + 24 h LPS
Experimental: THP-1 monocytes were differentiated into macrophages via treatment with 50 ng/ml phorbol 12-myristate 13-acetate (PMA) in THP-1 growth media (RPMI-1640, 100 μg/ml Primocin, 10% FBS, 0.05 mM β-mercaptoethanol) for 48 hours. Macrophages were then washed twice to remove PMA containing media before a 1-hour pretreatment with 1 μM BI1347 or 100 nM MSC2530818. Inflammatory stimulation was then initiated via the addition of lug/ml lipopolysaccharide (LPS) for 24 hours in the presence of 1 μM BI1347 or 100 nM MSC2530818. Gene expression analysis was subsequently carried out as previously outlined. For MSC2530818 treated/LPS stimulated cells, media supernatant was used for IL-1β cytokine analysis quantification via ELISA (PeproTech, ABTS Human IL-1β development ELISA) as per manufacturer instructions.

[3] = test system: primary equine articular chondrocytes; assay: Primary equine articular chondrocytes in chondrogenesis and IL1β OA disease model: gene expression; assay type: cell-based; details: 100 nM, N=2
Experimental: Articular cartilage was isolated, placed into a petri dish containing phosphate buffer saline (PBS) supplemented with 2% Ab/Am (PBS-Ab/Am) and transferred to a laminar flow hood for processing. Cartilage shavings were minced using a sterile scalpel to approximately 1 mm^3 and washed in fresh PBS-Ab/Am by centrifugation at 500×g for 10 minutes. Supernatant was removed and the cartilage pellet resuspended in 5 ml TrypLE™ (Gibco) before incubation at 37° C. for 10 minutes with gentle agitation. Dissociated cartilage fragments were pelleted and washed to remove excess TrypLE and resuspended in DMEM-complete media (DMEM/F12 (Gibco), 1% Ab/Am, 10% FBS) supplemented with 2 mg/ml Collagenase Type II and incubated overnight at 37° C. with gentle agitation. The cartilage digest was pelleted, washed and subsequently resuspended in DMEM-complete. Released cells were counted using a haematocytometer and seeded at 10,000 cells per cm^2. The cultures were incubated at 37° C., 5% CO2 in a humidified incubator for 2 days before refreshing DMEM-complete every 2 days until confluency. For differentiation experiments, primary chondrocytes were differentiated in DMEM/F12 containing 2% FBS, 1% Ab/Am, 1× Insulin-Transferrin-Selenium premix, 10 ng/ml TGFβ3 (primary chondrocyte differentiation media).
Additional experiments were carried out on primary chondrocytes (equine, canine and human) and ihMSC (TERT immortalised human mesenchymal stromal cell line) to investigate whether CDK8i protects from IL-1β induced degradation when added throughout the entirety of differentiation/IL-1β treatment. Briefly, ihMSCs were seeded at a density of 5×10^4 cells per 10 μl micromass and differentiated in ihMSC chondrogenic media (1% FBS, 1% Ab/Am, 1× Insulin-Transferrin-Selenium premix, 10 μM Y-27632, 100 nM dexamethasone, 50 μg/ml ascorbic acid, 20 ng/ml TGF-β3 (Peprotech)). Primary chondrocytes were seeded at 2.7×10^5 cells per 10 μl micromass and differentiated in primary chondrocyte differentiation media. All micromasses were differentiated for 12 days in the presence of 100 nM […] or DMSO. Some micromasses were processed for gene expression analysis/alcian blue staining on day 12, whilst others were treated with IL-β media (1% FBS, 1% Ab/Am, 10 ng/ml IL-1B) and CDK8i for 48-hours before processing for alcian blue staining/gene expression analysis on day 14 as previously described.

CN(C)C(=O)Cn1cc(-c2ccc(-c3cncc4ccccc34)cc2)cn1 [BI1347]
mature osteoclast number vs DMSO [1]: no effect; also recorded: no change
osteoclast resorptive activity, reduction vs DMSO [1]: 2.3 fold
pre-osteoclast number vs DMSO [1]: no effect; also recorded: no change
micromass morphology (ATDC5 micromass; 14 days, vs DMSO): visible increase in extracellular matrix production; also recorded: visibly larger, more rounded and resembled the appearance of healthy cartilage
COL2A1 expression, increase vs DMSO (ATDC5 micromass; day 7): 4.7 fold
Mediator complex gene expression vs DMSO (ATDC5 micromass; day 7): robustly downregulated; also recorded: overall reduction
ACAN expression, increase vs DMSO (ATDC5 micromass; day 7 (N.S)): 6 fold
ACAN expression, increase vs DMSO (ATDC5 micromass; day 14): 6 fold
COL10A1 expression, decrease vs DMSO (ATDC5 micromass; day 14): 5.3 fold
NF-κB gene expression, decrease vs DMSO [2]: 6 fold
TLR4 gene expression, decrease vs DMSO [2]: 9 fold

Cc1n[nH]c2ncc(C(=O)N3CCC[C@H]3c3ccc(Cl)cc3)cc12 [MSC2530818]
ADAMTS5 gene expression, reduction vs DMSO ([3]; OA disease model (+IL1β)): 2.7 fold
CNMD gene expression, increase vs DMSO ([3]; OA disease model (+IL1β)): 70 fold
COL2A1 gene expression, increase vs DMSO ([3]; OA disease model (+IL1β)): 11 fold
SMOC2 gene expression, increase vs DMSO ([3]; OA disease model (+IL1β)): 3 fold
ACAN gene expression, increase vs DMSO ([3]; OA disease model (+IL1β), ns): 1.8 fold
MATN3 gene expression vs DMSO ([3]; OA disease model (+IL1β), ns): 2 fold
TIMP4 gene expression, increase vs DMSO ([3]; OA disease model (+IL1β), ns): 1.14 fold
CNMD gene expression, increase vs DMSO ([3]; chondrogenic (−IL1β)): 41 fold
SMOC2 gene expression, increase vs DMSO ([3]; chondrogenic (−IL1β)): 2.3 fold
TIMP4 gene expression vs DMSO ([3]; chondrogenic (−IL1β)): no change
ACAN gene expression, increase vs DMSO ([3]; chondrogenic (−IL1β), ns): 2 fold
COL2A1 gene expression, decrease vs DMSO ([3]; chondrogenic (−IL1β), ns): 1.25 fold
MATN3 gene expression vs DMSO ([3]; chondrogenic (−IL1β), ns): 2 fold
